{"source": "patent US6403606B1", "about": "“Thienopyridine derivatives and their use” (Takeda Chemical Industries Ltd., priority 1996, dated 2002)", "key": {"[1]": {"tested_on": "fetal rat bone culture (humeri, radii and ulnae)", "test": "Bone resorption inhibitory activity, 45Ca release from fetal rat bone culture (Test Example 2A)", "type": "cell-based, Sprague-Dawlay rat", "conditions": "10 μM compound, 2 days culture; 45Ca release as % of control without compound (lower = more inhibition)", "protocol": "(§1) The measurement of bone resorption inhibitory activity was carried out according to the method of Raisz [J. Clin. Invest., 44, 103-116 (1965)]. Namely, 50 μCi of ^45Ca (radioisotope of calcium in CaCl2 solution) was subcutaneously injected into a Sprague-Dawlay rat of 18th day of pregnancy. On the next day, the abdomen was opened and a fetal rat was taken out sterilely. The left and right humeri (radii and ulnae) were removed from the body under a dissection microscope and connective tissues and cartilages were removed as much as possible. Thus, bone culture samples were prepared. The bone was incubated in a medium (0.6 ml) of BCJb medium (Fitton-Jackson modification: GIBCO Laboratories, U.S.A.) containing 2 mg/ml of bovine serum albumin at 37° C. for 24 hours in an atmosphere of 5% of CO2 in air. The bones were cultured for an additional 2 days in the above medium containing a final concentration of 10 μM of the compound. The ratio (%) of ^45Ca released from the bone into the medium was calculated according to the following equation. [formula]\n(§2) The bones from the same litter were cultured for 2 days the same manner without addition of the compound, and used as the control. The mean±standard deviation of the values for five bones of each group was calculated. The ratio (%) of this value to the control value was calculated. The results are shown in Table 2 (In the tables hereinafter, Ex. No. indicates Example No.)."}, "[2]": {"tested_on": "Rat Adjuvant Arthritis", "test": "Activity on rat adjuvant arthritis (Test Example 1A)", "type": "in vivo, Male Lewis rats", "conditions": "6.25 mg/kg once daily for 14 days, relative to non-sensitized rats, N=6; for Body weight gain rate (%): day 14; for Edema inhibitory rate (%): left hind paw volume day 14", "protocol": "(§3) Male Lewis rats (7 weeks old, Clea Japan) were sensitized by intracutaneous injection of 0.05 ml of Freund's complete adjuvant (0.5% dead tubercle bacillus cell suspension in liquid paraffin) at the right hind paw. The test drug (6.25 mg/kg), in a suspension in 0.5% methyl cellulose, was administered once daily for 14 days starting just before sensitization (day 0). At the days 0 and 14, the left hind paw volume and body weight of the animals were measured using a plethysmometer (manufactured by Ugo Basile Company, Italy) and an electronic balance (EB-3200D, manufactured by Shimadzu Corporation, Japan), respectively, and paw swelling suppression rate (%) and body weight gain rate (%), relative to non-sensitized rats, were determined.\n(§4) The results, expressed in mean±S.E. for each group (N=6), were compared and statistically analyzed by Dunnet method. Level of significance was set below 5%."}, "[3]": {"tested_on": "fetal rat bone culture (humeri, radii and ulnae)", "test": "Bone resorption inhibitory activity, 45Ca release from fetal rat bone culture (Test Example 2B)", "type": "cell-based, Sprague-Dawlay rat", "conditions": "10 μM compound, 2 days culture; 45Ca release as % of control without compound (lower = more inhibition)", "protocol": "as §1\nas §2, with “Table 4” for “Table 2”"}, "[4]": {"tested_on": "Rat Adjuvant Arthritis", "test": "Activity on rat adjuvant arthritis (Test Example 1B)", "type": "in vivo, Male Lewis rats", "conditions": "N=6; for Body weight gain rate (%): day 14; for Edema inhibitory rate (%): left hind paw volume day 14", "protocol": "as §3, with “(6.25 mg/kg or 3.13” for “(6.25”\nas §4"}, "[5]": {"conditions": "6.25 mg/kg once daily for 14 days"}, "[6]": {"conditions": "3.13 mg/kg once daily for 14 days"}}, "note": "Marks after values point to notes of the source that are not given here.", "data": [{"compound": "CCOC(=O)c1c(CCCCn2cncn2)nc2sc3c(c2c1-c1ccc(OC)c(OC)c1)CCN(C(=O)c1ccc(Cl)cc1)C3", "note": "[Example 28A, ethyl 7-(4-chlorobenzoyl)-4-(3,4-dimethoxyphenyl)-5,6,7,8-tetrahydro-2-[4-(1,2,4-triazol-1-yl]butyl]thieno[2,3-b:5,4-c′]dipyridine-3-carboxylate]", "values": [{"measurement": "melting point", "result": "165 to 166", "unit": "°C"}, {"measurement": "Bone resorption inhibitory activity (^45Ca release) (% based on the control value)", "setting": "[1]", "result": "67*** % based on the control value"}]}, {"compound": "CCOC(=O)c1c(CN(CC)CC)nc2sc3c(c2c1-c1ccc(OC)c(OC)c1)CCN(C(C)=O)C3", "note": "[Example 15A, ethyl 7-acetyl-2-(N,N-diethylaminomethyl)-4-(3,4-dimethoxyphenyl)-5,6,7,8-tetrahydrothieno[2,3-b:5,4-c′]dipyridine-3-carboxylate]", "values": [{"measurement": "Body weight gain rate (%)", "setting": "[2]", "result": 9, "unit": "%"}, {"measurement": "Edema inhibitory rate (%)", "setting": "[2]", "result": "60** %"}]}, {"compound": "CCOC(=O)c1c(CN(CC)CC)nc2sc3c(c2c1-c1ccc(CC)cc1)CCNC3", "note": "[Example 33A, ethyl 4-(4-ethylphenyl)-5,6,7,8-tetrahydro-2-(N,N-diethylaminomethyl)thieno[2,3-b:5,4-c′]dipyridine-3-carboxylate]", "values": [{"measurement": "melting point", "result": "107 to 108", "unit": "°C"}, {"measurement": "Bone resorption inhibitory activity (^45Ca release) (% based on the control value)", "setting": "[1]", "result": "72** % based on the control value"}]}, {"compound": "7-benzyl-3-chloro-4-(3,4-dimethoxyphenyl)-2-(2-oxo-1-pyrrolidinylmethyl)-5,6,7,8-tetrahydrothieno[2,3-b:5,4-c′]dipyridine [Example 28B]", "values": [{"measurement": "Bone resorption inhibitory inhibitory activity (^45Ca release) (% based on the control value)", "setting": "[3]", "result": "47** % based on the control value"}, {"measurement": "Body weight gain rate (%)", "setting": "[4]; [5]", "result": "19** %"}, {"measurement": "Edema inhibitory rate (%)", "setting": "[4]; [5]", "result": "78** %"}]}, {"compound": "CCOC(=O)c1c(CCCn2cncn2)nc2sc3c(c2c1-c1ccc(OC)c(OC)c1)CCN(C(=O)c1ccc(Cl)cc1)C3", "note": "[Example 27A, ethyl 7-(4-chlorobenzoyl)-4-(3,4-dimethoxyphenyl)-5,6,7,8-tetrahydro-2-[3-(1,2,4-triazol-1-yl]propyl]thieno[2,3-b:5,4-c′]dipyridine-3-carboxylate]", "values": [{"measurement": "melting point", "result": "114 to 116", "unit": "°C"}, {"measurement": "Bone resorption inhibitory activity (^45Ca release) (% based on the control value)", "setting": "[1]", "result": "74* % based on the control value"}]}, {"compound": "7-benzyl-3-chloro-4-(3,4-dimethoxyphenyl)-2-(2-oxo-1-piperidinylmethyl)-5,6,7,8-tetrahydrothieno[2,3-b:5,4-c′]dipyridine [Example 24B]", "values": [{"measurement": "Bone resorption inhibitory inhibitory activity (^45Ca release) (% based on the control value)", "setting": "[3]", "result": "44** % based on the control value"}]}, {"compound": "CCOC(=O)c1c(CN(CC)CC)nc2sc3c(c2c1-c1ccc(OC)c(OC)c1)CCN(C(=O)Nc1ccccc1)C3", "note": "[Example 12A, ethyl 2-(N,N-diethylaminomethyl)-4-(3,4-dimethoxyphenyl)-7-phenylcarbamoyl-5,6,7,8-tetrahydrothieno[2,3-b:5,4-c′]dipyridine-3-carboxylate]", "values": [{"measurement": "melting point", "result": "154 to 155", "unit": "°C"}, {"measurement": "Bone resorption inhibitory activity (^45Ca release) (% based on the control value)", "setting": "[1]", "result": "77* % based on the control value"}]}, {"compound": "CCOC(=O)c1c(CN(CC)CC)nc2sc3c(c2c1-c1ccc(OC)c(OC)c1)CCN(C(=O)c1ccc(Cl)cc1)C3", "note": "[Example 2A, ethyl 7-(4-chlorobenzoyl)-2-(N,N-diethylaminomethyl)-4-(3,4-dimethoxyphenyl)-5,6,7,8-tetrahydrothieno[2,3-b:5,4-c′]dipyridine-3-carboxylate]", "values": [{"measurement": "melting point", "result": "96 to 98", "unit": "°C"}, {"measurement": "Bone resorption inhibitory activity (^45Ca release) (% based on the control value)", "setting": "[1]", "result": "62** % based on the control value"}]}, {"compound": "7-benzyl-3-chloro-4-(4-hydroxy-3-methoxyphenyl)-2-(2-oxo-1-pyrrolidinylmethyl)-5,6,7,8-tetrahydrothieno[2,3-b:5,4-c′]dipyridine [Example 29B]", "values": [{"measurement": "Body weight gain rate (%)", "setting": "[4]; [6]", "result": 12, "unit": "%"}, {"measurement": "Edema inhibitory rate (%)", "setting": "[4]; [6]", "result": "69** %"}]}, {"compound": "CCOC(=O)c1c(CN(CC)CC)nc2sc3cnccc3c2c1-c1ccc(OC)c(OC)c1", "note": "[Example 7A, ethyl 2-(N,N-diethylaminomethyl)-4-(3,4-dimethoxyphenyl)thieno[2,3-b:5,4-c′]dipyridine-3-carboxylate]", "values": [{"measurement": "Body weight gain rate (%)", "setting": "[2]", "result": "26** %"}, {"measurement": "Edema inhibitory rate (%)", "setting": "[2]", "result": "84** %"}]}, {"compound": "CCOC(=O)c1c(Cn2cncn2)nc2sc3c(c2c1-c1ccc(OC)c(OC)c1)CCCN3C(=O)OCc1ccccc1", "note": "[Example 56A, ethyl 8-benzyloxycarbonyl-4-(3,4-dimethoxyphenyl)-5,6,7,8-tetrahydro-2-(1,2,4-triazol-1-ylmethyl)thieno[2,3-b:5,4-b′]dipyridine-3-carboxylate]", "values": [{"measurement": "melting point", "result": "184 to 185", "unit": "°C"}]}, {"compound": "CCOC(=O)c1c(CN(CC)CC)nc2sc3c(c2c1-c1ccc(Cl)cc1)CCN(C(=O)c1ccccc1)C3", "note": "[Example 4A, ethyl 7-benzoyl-4-(4-chlorophenyl)-2-(N,N-diethylaminomethyl)-5,6,7,8-tetrahydrothieno[2,3-b:5,4-c′]dipyridine-3-carboxylate]", "values": [{"measurement": "melting point", "result": "177 to 178", "unit": "°C"}]}, {"compound": "CCOC(=O)c1c(CN(CC)CC)nc2sc3c(c2c1-c1ccc(Cl)cc1)CCNC3", "note": "[Example 6A, ethyl 4-(4-chlorophenyl)-2-(N,N-diethylaminomethyl)-5,6,7,8-tetrahydrothieno[2,3-b:5,4-c′]dipyridine-3-carboxylate]", "values": [{"measurement": "melting point", "result": "104 to 106", "unit": "°C"}]}, {"compound": "CCOC(=O)c1c(Cn2cncn2)nc2sc3cnccc3c2c1-c1ccc(OC)c(OC)c1", "note": "[Example 47A, ethyl 4-(3,4-dimethoxyphenyl)-2-(1,2,4-triazol-1-ylmethyl)thieno[2,3-b:5,4-c′]dipyridine-3-carboxylate]", "values": [{"measurement": "melting point", "result": "172 to 174", "unit": "°C"}]}, {"compound": "CCOC(=O)c1c(CN(CC)CC)nc2sc3c(c2c1-c1ccc(OC)c(OC)c1)CCN(C(=O)c1ccccc1)C3", "note": "[Example 1A, ethyl 7-benzoyl-2-(N,N-diethylaminomethyl)-4-(3,4-dimethoxyphenyl)-5,6,7,8-tetrahydrothieno[2,3-b:5,4-c′]dipyridine-3-carboxylate]", "values": [{"measurement": "Body weight gain rate (%)", "setting": "[2]", "result": 15, "unit": "%"}, {"measurement": "Edema inhibitory rate (%)", "setting": "[2]", "result": 49, "unit": "%"}]}, {"compound": "CCOC(=O)c1c(CN(CC)CC)nc2sc3c(c2c1-c1ccc(OC)c(OC)c1)CCNC3", "note": "[Example 5A, ethyl 2-(N,N-diethylaminomethyl)-4-(3,4-dimethoxyphenyl)-5,6,7,8-tetrahydrothieno-[2,3-b:5,4-c′]dipyridine-3-carboxylate]", "values": [{"measurement": "melting point", "result": "72 to 75", "unit": "°C"}, {"measurement": "Bone resorption inhibitory activity (^45Ca release) (% based on the control value)", "setting": "[1]", "result": "72* % based on the control value"}]}, {"compound": "COc1ccc(-c2c(Cl)c(CN3CCCCCC3=O)nc3sc4c(c23)CCN(Cc2ccccc2)C4)cc1OC", "note": "[Example 25B, 7-benzyl-3-chloro-4-(3,4-dimethoxyphenyl)-2-(2-oxohexamethyleneiminomethyl)-5,6,7,8-tetrahydrothieno[2,3-b:5,4-c′]dipyridine]", "values": [{"measurement": "Bone resorption inhibitory inhibitory activity (^45Ca release) (% based on the control value)", "setting": "[3]", "result": "52** % based on the control value"}, {"measurement": "melting point", "result": "113 to 114", "unit": "°C"}]}, {"compound": "CCOC(=O)c1c2c(cn1Cn1cncn1)C1=C(NC(C(=O)OCc3ccccc3)CC1)[SH]2c1ccc(OC)c(OC)c1", "note": "(stereo not shown) [Example 17A, ethyl 2-benzyloxycarbonyl-8-(3,4-dimethoxyphenyl)-2,3-dihydro-6-(1,2,4-triazol-1-ylmethyl)-1H-pyrrolo[3′,4′:4,5]thieno[2,3-b]pyridine-7-carboxylate]", "values": [{"measurement": "melting point", "result": "166 to 167", "unit": "°C"}]}]}
